Laboratory results published in ChEMBL document CHEMBL1156829 (Proc Natl Acad Sci U S A, 2008).

Experiments:
[1] = test system: Plasmodium falciparum; assay: NOVARTIS: Inhibition of Plasmodium falciparum 3D7 (drug-susceptible) proliferation in erythrocyte-based infection assay; assay type: functional, organism-based; details: Plasmodium falciparum, 3D7
[2] = test system: Plasmodium falciparum; assay: NOVARTIS: Inhibition of Plasmodium falciparum W2 (drug-resistant) proliferation in erythrocyte-based infection assay; assay type: functional, organism-based; details: Plasmodium falciparum, W2; read-out: EC50
[3] = NOVARTIS: Cytotoxicity against human hepatocellular carcinoma cell line (Huh7); assay type: toxicity, cell-based, Huh-7; details: Huh7 cells (hepatocellular carcinoma cell line)

SMILES | EC50 [1] [nM] | EC50 [2] [nM] | CC50 [3] [nM]
Cc1cc(/C=C2\SC(=Nc3ccccc3)NC2=O)c(C)n1-c1cccc([N+](=O)[O-])c1 | 682 | 897 | > 100000
CCN1CCN(c2ccc(Nc3c4ccccc4nc4ccccc34)cc2)CC1 | 50.7 | 160 | 17400
Cc1nc([P+](c2ccccc2)(c2ccccc2)c2ccccc2)c(SCc2ccccc2)o1.[O-][Cl+3]([O-])([O-])[O-] | 456 | 621 | 68300
COc1ccc(C(NC(=O)COc2ccccc2)c2cc(Cl)c3cccnc3c2O)cc1 (stereo not drawn) | 3570 | 918 | > 100000
c1ccc(CCNc2ncnc3c2[nH]c2ccccc23)cc1 | 167 | 136 | 15600
CC(Cc1ccsc1)Nc1nc2nonc2nc1N(C)C (stereo not drawn) | 810 | 881 | > 100000
Fc1ccc2[nH]c3c(NCCN4CCCCC4)ncnc3c2c1 | 154 | 214 | 23700
Cc1ccc2[nH]c(C)c(Br)c(=O)c2c1 | 1240 | 884 | > 100000
Cc1cc(C)cc(Nc2cc(C)nc3ncnn23)c1 | 1220 | 901 | > 100000
O=C(Nc1ccc(-c2nc3ccccc3[nH]2)cc1)c1ccc(-c2cccc([N+](=O)[O-])c2)o1 | 2240 | 924 | > 100000
Cc1cc(OC(C)C(=O)N2CCc3ccccc32)ccc1Cl (stereo not drawn) | 897 | 926 | > 100000
Cc1cccn2c(NCc3ccccc3)c(-c3ccccc3OC(=O)C(C)Cl)nc12 (stereo not drawn) | 764 | 925 | > 100000
CCCCCCCCCCCCCC(=O)Oc1ccccc1-c1nc2cc(C)ccn2c1NC(C)(C)CC(C)(C)C | 1520 | 88.4 | > 10000
CCOC(=O)c1c(CN2CCN(CC#N)CC2)n(Cc2ccccc2)c2cc(Br)c(O)cc12 | 1180 | 884 | > 100000
C#CCN1c2ccccc2Sc2cccnc21 | 50.4 | 321 | 36400
CCOC(=O)c1cc(S(=O)(=O)NCc2ccc(F)cc2)n[nH]1 | > 847 | 88.1 | > 10000
OC(CNCc1ccco1)Cn1c2ccc(Cl)cc2c2cc(Cl)ccc21 (stereo not drawn) | 5050 | 881 | > 100000
CSc1nc(SC)c2c3c(sc2n1)CN(C)CC3 | 750 | 881 | > 100000
CC(=O)N(C1=C(N(C)C)C(=O)c2ccccc2C1=O)c1ccc(Cl)c(Cl)c1 | 82 | 73.4 | 8350
Fc1ccc(-c2c[n+](Cc3ccc(Cl)cc3Cl)c3n2CCC3)cc1 | 1450 | 880 | > 100000
CCCCCCCC[n+]1c(C)n(C)c2cc(Cl)c(Cl)cc21 | 527 | 356 | 40500
COC(=O)c1c(NC(=O)c2ccc(S(=O)(=O)N3CCOCC3)cc2)sc2c1CCN(C(C)=O)C2 | 8660 | 878 | > 100000
CC(C)(C)C(=O)Cn1ccc(=N)c2ccccc21 | 2030 | 877 | > 100000
CC(C)CNC(=O)c1ccc(OC2CCN(CC3CCCCC3)CC2)c(Cl)c1 | 326 | 130 | 14800

SMILES | EC50 [1] [nM] | EC50 [2] [nM] | CC50 [3] [nM]
COc1ccc(OC)c(-c2ccc(O)c(CN3CCCCCC3)c2)c1 | 570 | 87.6 | > 10000
C=CCc1cccc(C=NNc2nc3ccccc3[nH]2)c1O | 657 | 928 | > 100000
OC(CN1CCOCC1)Cn1c2ccc(Br)cc2c2cc(Br)ccc21 (stereo not drawn) | 991 | 440 | 47400
Cc1ccc(Cn2c(C)c3cnn(CC(=O)O)c(=O)c3c2C)cc1 | > 9010 | 928 | > 100000
O=C(Cn1c2ccccc2c(=O)c2ccccc21)Nc1ccc(Cl)cc1C(=O)c1ccccc1 | 817 | 925 | > 100000
CCc1ccc(O)c(-c2cc(C(=O)Nc3cccnc3)[nH]n2)c1 | 742 | 910 | > 100000
CN(C)CCCN(Cc1cc2cc3c(cc2[nH]c1=O)OCO3)C(=S)Nc1cccc(Cl)c1 | 978 | 918 | > 100000
CN(C)CCNC(=S)Nc1cccc(C(F)(F)F)c1 | 4030 | 897 | > 100000
COc1cccc(-c2ccc(O)c(CN(C)CC(O)c3ccccc3)c2)n1 (stereo not drawn) | 246 | 90.4 | > 10000
COc1cccc(OCC(=O)NN=C(C)CC(=O)NCc2ccco2)c1 | > 12500 | 901 | > 100000
COc1ccc(/C=C/C(=O)NC(=O)c2ccccc2O)cc1 | 118 | 92.1 | > 10000
C[n+]1c(/C=C/c2ccc(F)cc2)ccc2ccccc21 | 104 | 90.7 | > 10000
Cc1cccc(NC(=O)CCCn2c(=O)c3cccn3c3ccccc32)c1C | 778 | 906 | > 100000
C[n+]1oc(/C=C/c2ccccc2)cc1/C=C/c1ccccc1 | 110 | 88.8 | > 10000
c1ccc2[nH]c(Sc3ncnc4sc5c(c34)CCC5)nc2c1 | 6840 | 909 | > 100000
CCCCCCC[N+](CC)(CC)CCCCc1ccc(Cl)cc1 | 431 | 90.9 | > 10000
CN(CCCNc1ccnc2cc(Cl)ccc12)C(=O)c1ccc(Cl)cc1 | 122 | 75.6 | > 8530
O=C1c2ccccc2C(=O)c2c1ccc1nonc21 | 121 | 88.6 | > 10000
Nc1ccc(C(=O)Nc2ccc(-c3nc4ccccc4o3)cc2)cc1 | 935 | 893 | > 100000
COc1cc(Br)c(C2CC(=O)Nc3ccc4ccccc4c32)cc1OC (stereo not drawn) | 386 | 307 | 34400
Cn1nccc1C(OCC(=O)N1CCOCC1)c1ccc(F)cc1 (stereo not drawn) | 134 | 89.2 | > 10000
CC(=O)N(C1=C(N2CCOCC2)C(=O)c2ccccc2C1=O)c1cc(C)cc(C)c1 | 40.1 | 63.3 | 6940
COc1cc(C2C(C(=O)OCC(C)C)=C(C)NC3=C2C(=O)CC(c2ccccc2)C3)cc(Br)c1O (stereo not drawn) | 850 | 911 | > 100000
CN(C)c1cc[n+](CC(=O)Nc2ccc(Cl)cc2)cc1 | 549 | 897 | > 100000

SMILES | EC50 [1] [nM] | EC50 [2] [nM] | CC50 [3] [nM]
O=C(CCl)Nc1ccc(OC(F)F)cc1 | 317 | 162 | 18100
O=C(Nc1ccc(-n2cccn2)cc1)C1CCN(Cc2nc3c(s2)CCCC3)CC1 | 1350 | 894 | > 100000
NNc1nc(NCc2ccccc2)nc(N2CCOCC2)n1 | 71.8 | 89.4 | > 10000
CCCCNC(=O)C1CCC(CN(Cc2c(Cl)cccc2Cl)S(=O)(=O)c2ccc(Br)cc2)CC1 (stereo not drawn) | 546 | 916 | > 100000
CCN(CC)c1ccc(N=Cc2ccc(Sc3nc4ccccc4s3)o2)cc1 | 271 | 98.8 | 10800
c1ccc(-c2cc(NCc3ccco3)nc(-c3ccccn3)n2)nc1 | 182 | 91.4 | > 10000
CCn1c(SCc2ccc(Cl)cc2Cl)nc2sc3c(c2c1=O)CCN(C)C3 | 942 | 900 | > 100000
CCn1c(N=Nc2ccc(OC)cc2)nc2ccccc21 | 97.5 | 115 | 13000
Cc1ccc(Cl)cc1N1CCN(S(=O)(=O)c2ccc3c(c2)oc(=O)n3C)CC1 | > 12500 | 882 | > 100000
CCSc1nc2sc3c(c2c(=O)n1CC)CCN(C)C3 | 1410 | 923 | > 100000
N#Cc1ccc(NC(=O)NC2CC3CCCC(C2)N3CCc2ccccc2)cc1 (stereo not drawn) | 362 | 425 | 48600
COc1cc(-c2cc(C)c3c(OC)ccc(OC)c3n2)cc2c1OCCN(C(=O)CCn1nc(C)cc1C)C2 | 2710 | 913 | > 100000
Cc1c(C)c2c(c(C)c1O)CC[C@](C)(CN1CCN(c3cc(N4CCCC4)nc(N4CCCC4)n3)CC1)O2 | 175 | 384 | 42000
CCCCCCCCCC(=O)Oc1ccccc1-c1nc2cc(C)ccn2c1NC(C)(C)CC(C)(C)C | 1010 | 88.8 | > 10000
CC1(C)CC(=O)C2=C(C1)Nc1ccccc1N(C(=O)Cc1ccccc1)C2c1ccc([N+](=O)[O-])s1 (stereo not drawn) | > 1250 | 89.8 | > 10000
COc1ccc(NC(=O)C2=C(C)Nc3c(C(=O)Nc4ccc(C)cc4)cnn3C2c2cccc(Cl)c2)cc1 (stereo not drawn) | 2510 | 924 | > 100000
CCNC(=O)NCCSc1nc(-c2ccccc2)c(-c2ccccc2)n1CC | 1630 | 917 | > 100000
CCOC(=O)C1=CN(C)C=C(C(=O)OCC)C1c1cc(Br)c(OCC)c(OC)c1 | 913 | 897 | > 100000
CCC(C)(C)C1CCc2sc3ncnc(NN=Cc4c(Cl)cccc4Cl)c3c2C1 (stereo not drawn) | 733 | 904 | > 100000
COc1cc(C(=O)C=CNc2ccc(N(C)C)cc2)cc(OC)c1OC | 2070 | 905 | > 100000
S=C(NC1CCCCC1)NC1CC2CCC(C1)N2Cc1ccccc1 (stereo not drawn) | 2970 | 468 | 51400
Cc1nc2sccn2c1-c1csc(Nc2ccccn2)n1 | 381 | 889 | > 100000
CCCCCCCCCCCC(=O)N(C)CCCNc1ccnc2cc(Cl)ccc12 | 223 | 27.3 | 3010
